Reference: ChEMBL document CHEMBL3885881, “DrugMatrix”

Species on record: Rattus norvegicus
Test: DrugMatrix - Regimen: Daily Repeat
Format: toxicity, organism-based, Sprague-Dawley
Design: regimen Daily Repeat, gender Male, age 6-8 weeks
Conditions: in vivo, po, route oral GAVAGE, […]; for ABSOLUTE BASOPHIL / ABSOLUTE EOSINOPHIL / ABSOLUTE LYMPHOCYTE / ABSOLUTE MONOCYTE / ABSOLUTE SEGMENTED NEUTROPHIL / BASOPHIL / EOSINOPHIL / ERYTHROCYTE COUNT / HEMATOCRIT / HEMOGLOBIN / LEUKOCYTE COUNT / LYMPHOCYTE / MEAN CORPUSCULAR HEMOGLOBIN / MEAN CORPUSCULAR HEMOGLOBIN CONCENTRATION / MEAN CORPUSCULAR VOLUME / MONOCYTE / NEUTROPHIL / NUCLEATED RED BLOOD CELLS / PLATELET COUNT: tissue Blood; for ALANINE AMINOTRANSFERASE / ALBUMIN / ALKALINE PHOSPHATASE / ASPARTATE AMINOTRANSFERASE / BLOOD UREA NITROGEN / CARBON DIOXIDE / CHLORIDE / CHOLESTEROL / CREATINE PHOSPHOKINASE / CREATININE / GLUCOSE / LACTATE DEHYDROGENASE / LIPASE / PHOSPHORUS / POTASSIUM / SODIUM / TOTAL BILIRUBIN / TOTAL PROTEIN / URIC ACID: tissue Plasma
[1] = 0 mg/kg, 72 h, dose level Control, time 3 day
[2] = 0 mg/kg, 120 h, dose level Control, time 5 day
[3] = 30 mg/kg, 72 h, dose level Low, time 3 day

Which “ABSOLUTE BASOPHIL” value [1] does the source give for `COC1=CC(=O)C[C@@H](C)[C@]12Oc1c(Cl)c(OC)cc(OC)c1C2=O` [GRISEOFULVIN] here?
The value was 0 CELLS/uL.

What about the “ABSOLUTE EOSINOPHIL” value [1] of the same compound?
Its value is 0 CELLS/uL.

And the “ABSOLUTE LYMPHOCYTE” value [1]?
The value was 14687.67 CELLS/uL.

And the “ABSOLUTE MONOCYTE” value [1]?
The value was 164 CELLS/uL.

And the “ABSOLUTE SEGMENTED NEUTROPHIL” value [1]?
Its value is 1748.33 CELLS/uL.

What about the BASOPHIL [1] of the same compound?
Its BASOPHIL is 0%.

What about the EOSINOPHIL [1] of the same compound?
The EOSINOPHIL was 0%.

And the “ERYTHROCYTE COUNT” value [1]?
The value was 5.51 x10E6/uL.

What about the HEMATOCRIT [1] of the same compound?
The HEMATOCRIT was 33.68%.

What about the HEMOGLOBIN [1] of the same compound?
Its HEMOGLOBIN is 13.4 G/DL.

What about the “LEUKOCYTE COUNT” value [1] of the same compound?
The value was 16.6 x10E3/uL.

What about the LYMPHOCYTE [1] of the same compound?
The LYMPHOCYTE was 88.83%.

What about the “MEAN CORPUSCULAR HEMOGLOBIN” value [1] of the same compound?
Its value is 24.47 pg.

And the “MEAN CORPUSCULAR HEMOGLOBIN CONCENTRATION” value [1]?
The value was 39.82 G/DL.

And the “MEAN CORPUSCULAR VOLUME” value [1]?
The value was 61.23 fL.

And the MONOCYTE [1]?
Its MONOCYTE is 0.83%.

And the NEUTROPHIL [1]?
Its NEUTROPHIL is 10.33%.

And the “NUCLEATED RED BLOOD CELLS” value [1]?
Its value is 0 /100WBC.

And the “PLATELET COUNT” value [1]?
Its value is 1329.67 x10E3/uL.

What about the “ALANINE AMINOTRANSFERASE” value [1] of the same compound?
Its value is 61.33 u/L.

What about the ALBUMIN [1] of the same compound?
The ALBUMIN was 4.18 G/DL.

And the “ALKALINE PHOSPHATASE” value [1]?
The value was 332.5 u/L.

What about the “ASPARTATE AMINOTRANSFERASE” value [1] of the same compound?
The value was 98.33 u/L.

And the “BLOOD UREA NITROGEN” value [1]?
The value was 15.83 mg/dL.

What about the “CARBON DIOXIDE” value [1] of the same compound?
The value was 27.83 mmol/L.

And the CHLORIDE [1]?
The CHLORIDE was 100 MEQ/L.

And the CHOLESTEROL [1]?
Its CHOLESTEROL is 76.17 mg/dL.

And the “CREATINE PHOSPHOKINASE” value [1]?
Its value is 729.17 u/L.

And the CREATININE [1]?
Its CREATININE is 0.21 mg/dL.

What about the GLUCOSE [1] of the same compound?
The GLUCOSE was 151.83 mg/dL.

And the “LACTATE DEHYDROGENASE” value [1]?
Its value is 484.67 u/L.

What about the LIPASE [1] of the same compound?
The LIPASE was 10 u/L.

And the PHOSPHORUS [1]?
Its PHOSPHORUS is 11.3 mg/dL.

And the POTASSIUM [1]?
Its POTASSIUM is 6.1 MEQ/L.

And the SODIUM [1]?
Its SODIUM is 142.9 MEQ/L.

What about the “TOTAL BILIRUBIN” value [1] of the same compound?
The value was 0.23 mg/dL.

What about the “TOTAL PROTEIN” value [1] of the same compound?
Its value is 5.68 G/DL.

What about the “URIC ACID” value [1] of the same compound?
The value was 1.75 mg/dL.

And the “ABSOLUTE BASOPHIL” value [2]?
The value was 0 CELLS/uL.

What about the “ABSOLUTE EOSINOPHIL” value [2] of the same compound?
Its value is 58.67 CELLS/uL.

And the “ABSOLUTE LYMPHOCYTE” value [2]?
Its value is 15950.83 CELLS/uL.

And the “ABSOLUTE MONOCYTE” value [2]?
The value was 172.5 CELLS/uL.

What about the “ABSOLUTE SEGMENTED NEUTROPHIL” value [2] of the same compound?
Its value is 2551.33 CELLS/uL.

And the BASOPHIL [2]?
Its BASOPHIL is 0%.

And the EOSINOPHIL [2]?
The EOSINOPHIL was 0.33%.

And the “ERYTHROCYTE COUNT” value [2]?
The value was 5.5 x10E6/uL.

And the HEMATOCRIT [2]?
Its HEMATOCRIT is 34.05%.

And the HEMOGLOBIN [2]?
Its HEMOGLOBIN is 13.42 G/DL.

What about the “LEUKOCYTE COUNT” value [2] of the same compound?
Its value is 18.73 x10E3/uL.

What about the LYMPHOCYTE [2] of the same compound?
Its LYMPHOCYTE is 84.5%.

What about the “MEAN CORPUSCULAR HEMOGLOBIN” value [2] of the same compound?
Its value is 24.42 pg.

And the “MEAN CORPUSCULAR HEMOGLOBIN CONCENTRATION” value [2]?
Its value is 39.42 G/DL.

What about the “MEAN CORPUSCULAR VOLUME” value [2] of the same compound?
The value was 61.97 fL.

What about the MONOCYTE [2] of the same compound?
Its MONOCYTE is 1%.

What about the NEUTROPHIL [2] of the same compound?
Its NEUTROPHIL is 14.17%.

What about the “NUCLEATED RED BLOOD CELLS” value [2] of the same compound?
Its value is 0.33 /100WBC.

And the “PLATELET COUNT” value [2]?
The value was 1143.17 x10E3/uL.

What about the “ALANINE AMINOTRANSFERASE” value [2] of the same compound?
Its value is 57 u/L.

And the ALBUMIN [2]?
The ALBUMIN was 4.17 G/DL.

What about the “ALKALINE PHOSPHATASE” value [2] of the same compound?
The value was 347.33 u/L.

And the “ASPARTATE AMINOTRANSFERASE” value [2]?
The value was 93.67 u/L.

And the “BLOOD UREA NITROGEN” value [2]?
Its value is 15.67 mg/dL.

What about the “CARBON DIOXIDE” value [2] of the same compound?
Its value is 27.17 mmol/L.

What about the CHLORIDE [2] of the same compound?
Its CHLORIDE is 104.33 MEQ/L.

And the CHOLESTEROL [2]?
The CHOLESTEROL was 69.5 mg/dL.

And the “CREATINE PHOSPHOKINASE” value [2]?
The value was 317.17 u/L.

And the CREATININE [2]?
Its CREATININE is 0.2 mg/dL.

And the GLUCOSE [2]?
Its GLUCOSE is 162.33 mg/dL.

What about the “LACTATE DEHYDROGENASE” value [2] of the same compound?
Its value is 408.67 u/L.

And the LIPASE [2]?
Its LIPASE is 10.17 u/L.

And the PHOSPHORUS [2]?
Its PHOSPHORUS is 11.08 mg/dL.

And the POTASSIUM [2]?
Its POTASSIUM is 6.36 MEQ/L.

What about the SODIUM [2] of the same compound?
Its SODIUM is 146.07 MEQ/L.

And the “TOTAL BILIRUBIN” value [2]?
Its value is 0.22 mg/dL.

And the “TOTAL PROTEIN” value [2]?
The value was 5.92 G/DL.

What about the “URIC ACID” value [2] of the same compound?
Its value is 1.47 mg/dL.

And the “ABSOLUTE BASOPHIL” value [3]?
Its value is 0 CELLS/uL.

What about the “ABSOLUTE EOSINOPHIL” value [3] of the same compound?
Its value is 0 CELLS/uL.

And the “ABSOLUTE LYMPHOCYTE” value [3]?
The value was 15609 CELLS/uL.

And the “ABSOLUTE MONOCYTE” value [3]?
The value was 50.67 CELLS/uL.

What about the “ABSOLUTE SEGMENTED NEUTROPHIL” value [3] of the same compound?
The value was 2173.67 CELLS/uL.

And the BASOPHIL [3]?
The BASOPHIL was 0%.

And the EOSINOPHIL [3]?
The EOSINOPHIL was 0%.

What about the “ERYTHROCYTE COUNT” value [3] of the same compound?
The value was 5.42 x10E6/uL.

What about the HEMATOCRIT [3] of the same compound?
The HEMATOCRIT was 34.33%.

What about the HEMOGLOBIN [3] of the same compound?
Its HEMOGLOBIN is 13.33 G/DL.

What about the “LEUKOCYTE COUNT” value [3] of the same compound?
The value was 17.83 x10E3/uL.

And the LYMPHOCYTE [3]?
Its LYMPHOCYTE is 87.67%.

What about the “MEAN CORPUSCULAR HEMOGLOBIN” value [3] of the same compound?
The value was 24.6 pg.

What about the “MEAN CORPUSCULAR HEMOGLOBIN CONCENTRATION” value [3] of the same compound?
The value was 38.9 G/DL.

And the “MEAN CORPUSCULAR VOLUME” value [3]?
The value was 63.3 fL.

What about the MONOCYTE [3] of the same compound?
Its MONOCYTE is 0.33%.

And the NEUTROPHIL [3]?
The NEUTROPHIL was 12%.

What about the “NUCLEATED RED BLOOD CELLS” value [3] of the same compound?
Its value is 0 /100WBC.

And the “PLATELET COUNT” value [3]?
Its value is 1271.33 x10E3/uL.

What about the “ALANINE AMINOTRANSFERASE” value [3] of the same compound?
The value was 68.33 u/L.

And the ALBUMIN [3]?
Its ALBUMIN is 3.87 G/DL.

And the “ALKALINE PHOSPHATASE” value [3]?
Its value is 322.67 u/L.

What about the “ASPARTATE AMINOTRANSFERASE” value [3] of the same compound?
Its value is 105.67 u/L.

What about the “BLOOD UREA NITROGEN” value [3] of the same compound?
Its value is 16 mg/dL.

And the “CARBON DIOXIDE” value [3]?
The value was 30.33 mmol/L.

What about the CHLORIDE [3] of the same compound?
Its CHLORIDE is 103 MEQ/L.

What about the CHOLESTEROL [3] of the same compound?
The CHOLESTEROL was 72.67 mg/dL.

And the “CREATINE PHOSPHOKINASE” value [3]?
Its value is 481 u/L.

What about the CREATININE [3] of the same compound?
The CREATININE was 0.24 mg/dL.

And the GLUCOSE [3]?
The GLUCOSE was 139.67 mg/dL.

What about the “LACTATE DEHYDROGENASE” value [3] of the same compound?
Its value is 535 u/L.

And the LIPASE [3]?
Its LIPASE is 10 u/L.

And the PHOSPHORUS [3]?
The PHOSPHORUS was 11.37 mg/dL.

What about the POTASSIUM [3] of the same compound?
Its POTASSIUM is 6.77 MEQ/L.

And the SODIUM [3]?
The SODIUM was 145.27 MEQ/L.

What about the “TOTAL BILIRUBIN” value [3] of the same compound?
The value was 0.2 mg/dL.

And the “TOTAL PROTEIN” value [3]?
Its value is 5.3 G/DL.

And the “URIC ACID” value [3]?
Its value is 1.6 mg/dL.
